Data published in the supplement of paper PMC5412046.
Where a name gives a salt, the structure may show the parent alone.

Assays:
SB.mhdgc-1 [1] = assay: viability at highest tested concentration (MAXR) relative to DMSO; higher = less cytotoxic; conditions: SB.mhdgc-1 (hereditary c.1380delA CDH1 gastric cancer)
Method in brief: (§1)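 Compound in DMSO was pinned (23 nL) at 11 threefold-diluted concentrations into wells containing 500 patient-derived gastric cancer cells, hereditary or sporadic, in 5 μL medium per 1536 well. Cells were incubated for 48 h, then exposed to CellTiter-Glo for 30 min at room temperature. Luminescence was measured on a ViewLux. The values are viability normalised to DMSO, either at the highest concentration or as trapezoidal area under the curve.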

SB.msgc-1 [2] = assay: as above; conditions: SB.msgc-1 (sporadic gastric cancer)
Method in brief: as §1

SB.mhdgc-1 [3] = assay: area under the dose-response curve of % viability (trapezoidal, 11 doses) (% viability x log10 concentration); higher = less cytotoxic; conditions: SB.mhdgc-1 (hereditary c.1380delA CDH1 gastric cancer)
Method in brief: as §1

SB.msgc-1 [4] = assay: as above; conditions: SB.msgc-1 (sporadic gastric cancer)
Method in brief: as §1

SMILES	viability (SB.mhdgc-1 [1])	viability (SB.msgc-1 [2])	area under the dose-response curve (SB.mhdgc-1 [3])	area under the dose-response curve (SB.msgc-1 [4])
CC(C)(C)c1cc(NC(=O)Nc2ccc(-c3cn4c(n3)sc3cc(OCCN5CCOCC5)ccc34)cc2)no1 [Quizartinib] (top concentration 46.0829 µM)	85.4%	71.7%	537	434
CC/1=C(/N2[C@H](SC1)[C@H](NC(=O)[C@H](N)\C3=C\C\C=C/C3)C2=O)C(O)=O [Cephradine] (top concentration 46.0829 µM)	108%	121%	571	538
CC1(C)Cc2c(-c3ccccc3)c(-c3ccc(Cl)cc3)c(CC(=O)O)n2C1 [Licofelone] (top concentration 46.0829 µM)	91.4%	62.5%	533	496
COC(=O)Nc1nc2cc(C(=O)c3ccc(F)cc3)ccc2[nH]1 [Flubendazole] (top concentration 46.0829 µM)	19.6%	17.7%	419	308
CC(C)CC(N(C)C)C1(c2ccc(Cl)cc2)CCC1 (stereo not given) [Sibutramine hydrochloride] (top concentration 46.0829 µM)	25.6%	36.2%	518	478
C[C@]1(CO)CN(c2cc(C(=O)Nc3ccc4c(c3)-c3c(c(C(N)=O)nn3-c3ccc(F)cc3)CC4)c(Cl)cn2)C[C@@]1(C)CO [PF-184] (top concentration 46.0829 µM)	30.3%	54.5%	450	496
O=C(Nc1ccccc1-c1cn2c(CN3CCNCC3)csc2n1)c1cnc2ccccc2n1 [SRT1720] (top concentration 46.0829 µM)	0.447%	7.57%	476	456
CNC(=O)c1cc(Oc2ccc(NC(=O)Nc3ccc(Cl)c(C(F)(F)F)c3)cc2)ccn1 [Sorafenib] (top concentration 46.0829 µM)	9.42%	26.6%	494	444
NC(CSC(c1ccccc1)(c1ccccc1)c1ccccc1)C(=O)O (stereo in doubt) [S-Trityl-L-cysteine] (top concentration 46.0829 µM)	80.3%	45.1%	491	458
CN1CCCC(CC1)N2\N=C(CC3=CC=C(Cl)C=C3)/C4=C(C=CC=C4)C2=O (stereo not given) [Azelastine hydrochloride] (top concentration 46.0829 µM)	9.68%	6.54%	407	358
CN(C)/[N+]([O-])=N/Oc1cc(ON[N+](=O)N2CCN(C(=O)c3cc(Cc4n[nH]c(=O)c5ccccc45)ccc3F)CC2)c([N+](=O)[O-])cc1[N+](=O)[O-] [JS-65-103] (top concentration 46.0829 µM)	5.91%	68.2%	480	534
Nc1ccc([S+](=O)([O-])Nc2ncccn2)cc1 [Silver sulfadiazine] (top concentration 46.0829 µM)	54.2%	80.3%	485	511
COc1ccc(CCC(=O)c2c(O)cc(O[C@@H]3O[C@H](CO)[C@@H](O)[C@H](O)[C@H]3O[C@@H]3O[C@@H](C)[C@H](O)[C@@H](O)[C@H]3O)cc2O)cc1O [Neohesperidin dihydrochalcone] (top concentration 46.0829 µM)	68.4%	49.3%	504	502
O=c1c(-c2ccc(O)cc2)coc2cc(O[C@@H]3O[C@H](CO)[C@@H](O)[C@H](O)[C@H]3O)ccc12 [Daidzin] (top concentration 46.0829 µM)	124%	99.1%	531	498
NC(=O)[C@@H](CCC(F)(F)F)N(Cc1ccc(-c2ncon2)cc1F)[S+](=O)([O-])c1ccc(Cl)cc1 [Avagacestat] (top concentration 46.0829 µM)	91.5%	68.8%	491	487
Nc1cccc([S+](=O)([O-])N2CCCN([S+](=O)([O-])c3ccc4c(c3)OCCO4)CC2)c1 (top concentration 46.0829 µM)	95.2%	53.4%	516	481
O=C(O)CSCC(=O)NC1CCSC1=O (stereo not given) [Erdosteine] (top concentration 46.0829 µM)	143%	112%	591	547
COc1ccc(-c2ccc3c(N4CCOCC4)nc(N4C[C@@H](C)O[C@@H](C)C4)nc3n2)cc1CO (top concentration 46.0829 µM)	43.4%	75.5%	340	445
CC(C)NCC(O)c1ccc(NS(C)(=O)=O)cc1 (stereo not given) [Sotalol] (top concentration 46.0829 µM)	35.2%	40.9%	485	512
COC(=O)[C@H](c1ccccc1Cl)N1CCc2sccc2C1 [Clopidogrel bisulfate] (top concentration 46.0829 µM)	82%	103%	478	542
CCCCc1oc2ccc(NS(C)(=O)=O)cc2c1C(=O)c1ccc(OCCCN(CCCC)CCCC)cc1 [Dronedarone] (top concentration 46.0829 µM)	3.4%	2.88%	476	512
N=C(N)NC(=N)N1CCOCC1 [Moroxydine] (top concentration 46.0829 µM)	52.5%	44.6%	506	479
CC[C@H](NC1=C2N=C[NH]C2=NC=N1)C/3=N/C4=C(C(=CC=C4)F)C(=O)N3C5=CC=CC=C5 [CAL-101] (top concentration 46.0829 µM)	9.41%	28.5%	436	455

SMILES	viability (SB.mhdgc-1 [1])	viability (SB.msgc-1 [2])	area under the dose-response curve (SB.mhdgc-1 [3])	area under the dose-response curve (SB.msgc-1 [4])
COc1cc2nccc(Oc3ccc(NC(=O)NC4CC4)c(Cl)c3)c2cc1C(N)=O [Lenvatinib] (top concentration 46.0829 µM)	3.75%	48.1%	399	474
N#C/C(C(=O)c1ccc(Cl)cc1Cl)=C1/NC(=O)c2ccc(Cl)cc2N1 [Cilliobrevin D] (top concentration 46.0829 µM)	81.9%	66.9%	474	496
Cc1cnc(Nc2ccc(F)cc2Cl)nc1-c1c[nH]c(C(=O)N[C@H](CO)c2cccc(Cl)c2)c1 (top concentration 46.0829 µM)	2.17%	7.36%	351	429
CC[C@H](CO)Nc1nc(NCc2ccccc2)c2ncn(C(C)C)c2n1 [Seliciclib] (top concentration 46.0829 µM)	42.5%	33.7%	413	505
N\C1=N\C2=C(N=C[N]2COCCO)C(=O)N1 [Aciclovir] (top concentration 46.0829 µM)	60%	82.4%	413	499
Cn1cc(-c2ccc3ncc(Cc4ccc5ncccc5c4)n3n2)cn1 [NVP-BVU-972] (top concentration 46.0829 µM)	49.7%	98.9%	374	506
Cn1cc(-c2ccncc2)c(-c2ccc(OCc3ccc4ccccc4n3)cc2)n1 [MP-10] (top concentration 46.0829 µM)	84.7%	55.8%	583	495
O=C1CCCC(=O)C1C(=O)c1ccc(C(F)(F)F)cc1[N+](=O)[O-] [Nitisinone] (top concentration 46.0829 µM)	111%	89.1%	556	592
COc1cccc2cc(-c3nc(C4CCC(C(=O)O)CC4)n4ncnc(N)c34)[nH]c12 (stereo not given) [OSI-027] (top concentration 46.0829 µM)	35.5%	46.1%	363	464
CCOC(=O)[C@@H](N)Cc1ccc(-c2cc(O[C@H](c3ccc(Cl)cc3-n3ccc(C)n3)C(F)(F)F)nc(N)n2)cc1.O=C(O)CNC(=O)c1ccccc1 [Telotristat etiprate] (top concentration 46.0829 µM)	2.69%	51.3%	440	532
O=C(NCc1ccccc1)[C@H](Cc1ccccc1)NC(=O)[C@H]1O[C@@H]1C(=O)NCCc1ccc(O)cc1 [CAA0225] (top concentration 46.0829 µM)	45.6%	57.1%	500	466
Cc1cccc(/C=N/Nc2cc(N3CCOCC3)nc(OCCc3ccccn3)n2)c1 [Apilimod] (top concentration 46.0829 µM)	6.66%	18.9%	423	447
COc1cc(N2CCC(N3CCN(C)CC3)CC2)ccc1Nc1ncnc(Nc2ccccc2[S+](=O)([O-])C(C)C)n1 [ASP-3026] (top concentration 46.0829 µM)	1.57%	35.5%	353	463
NC(=O)c1cccc(-c2cc(Nc3ccc(OC(F)(F)F)cc3)ncn2)c1 [GNF 2] (top concentration 46.0829 µM)	68.4%	48.7%	537	488
CCc1cc(-c2n[nH]c(C)c2-c2ccc3c(c2)OCCO3)c(O)cc1O (top concentration 46.0829 µM)	36.3%	46.9%	401	422
COC1=CC=C2[C@H]3CC[C@]4(C)[C@H](CC[C@H]4[C@@H]3CCC2=C1)NCCCCCCN5C(=O)\C=C/C5=O (top concentration 46.0829 µM)	83.9%	91%	526	579
COc1ccc2cccc(CCNC(C)=O)c2c1 [Agomelatine] (top concentration 46.0829 µM)	88.1%	92.6%	525	531
CN1CCC(CNc2ccc3ncc(-c4cccc(OC(F)(F)F)c4)n3n2)CC1 [SGI-1776] (top concentration 46.0829 µM)	5.43%	36.7%	469	493
Cc1ccc(C)c(OCCCC(C)(C)C(=O)O)c1 [Gemfibrozil] (top concentration 46.0829 µM)	44.5%	3.37%	476	252
C[C@@H](c1ncncc1F)[C@](O)(Cn1cncn1)c1ccc(F)cc1F [Voriconazole] (top concentration 46.0829 µM)	97.7%	89.1%	558	523
CN1CCN(c2ccc([N+](=O)[O-])c3no[n+]([O-])c23)CC1 (top concentration 46.0829 µM)	4.84%	21.4%	434	456
NC(=O)OCC(COC(N)=O)c1ccccc1 [Felbamate] (top concentration 46.0829 µM)	129%	104%	605	512
